Source: US20080004313A1, “Preparation of crystalline polymorphs of rimonabant hydrochloride” (priority 2006, published 2008)

Experiment: Stability study of bulk material (stability-indicating HPLC, storage under controlled temperature and humidity)
Format: physicochemical
Method: The stability of crystalline polymorphic forms or solvates of rimonabant hydrochloride of the present invention may be determined using conventional quantitative analytical methods. For example the stability of crystalline polymorph forms or solvates of rimonabant hydrochloride may be determined by using accelerated stability conditions, wherein the test compounds are stored under controlled conditions of temperature and humidity over known periods of time, e.g., 40° C./75% relative humidity. Quantitative analysis of the test compounds by high performance liquid chromatography method or by X-ray powder diffraction pattern, DSC, IR or TGA, against appropriate reference standards before, during and after the storage period allows the stability of the test compound to be determined.
The stability of polymorph forms or solvate forms (Form A, B, C, D and E) of crystalline rimonabant hydrochloride bulk material and tablets was assessed by storing samples for up to 6 or 12 weeks at 25° C./60% RH or 40° C./75% RH. Changes were monitored using a stability-indicating HPLC method. Results were calculated by normalized peak area (npa). Degradants were identified by comparison of their relative retention times against impurity standards.

Cc1c(C(=O)NN2CCCCC2)nn(-c2ccc(Cl)cc2Cl)c1-c1ccc(Cl)cc1.Cl [Form D, N-piperidino-5-(4-chlorophenyl)-1-(2,4-dichlorophenyl)-4-methyl-3-pyrazolecarboxamide hydrochloride]
stability (time) (bulk material, elevated temperatures and humidity): 3 months | physical and chemical stability (solid state): physically and chemically stable
